Where two headings read alike, the source gives them in different places.
Assays:
recombinant HDAC6 = molecular target: T1, recombinant HDAC6 (Homo sapiens, UniProt Q9UBN7); assay: comparative HDAC inhibition assay (Millipore fluorometric kit); type: biochemical
T1 construct: purchased Epigenetek
T1 sequence (Q9UBN7 1-1215): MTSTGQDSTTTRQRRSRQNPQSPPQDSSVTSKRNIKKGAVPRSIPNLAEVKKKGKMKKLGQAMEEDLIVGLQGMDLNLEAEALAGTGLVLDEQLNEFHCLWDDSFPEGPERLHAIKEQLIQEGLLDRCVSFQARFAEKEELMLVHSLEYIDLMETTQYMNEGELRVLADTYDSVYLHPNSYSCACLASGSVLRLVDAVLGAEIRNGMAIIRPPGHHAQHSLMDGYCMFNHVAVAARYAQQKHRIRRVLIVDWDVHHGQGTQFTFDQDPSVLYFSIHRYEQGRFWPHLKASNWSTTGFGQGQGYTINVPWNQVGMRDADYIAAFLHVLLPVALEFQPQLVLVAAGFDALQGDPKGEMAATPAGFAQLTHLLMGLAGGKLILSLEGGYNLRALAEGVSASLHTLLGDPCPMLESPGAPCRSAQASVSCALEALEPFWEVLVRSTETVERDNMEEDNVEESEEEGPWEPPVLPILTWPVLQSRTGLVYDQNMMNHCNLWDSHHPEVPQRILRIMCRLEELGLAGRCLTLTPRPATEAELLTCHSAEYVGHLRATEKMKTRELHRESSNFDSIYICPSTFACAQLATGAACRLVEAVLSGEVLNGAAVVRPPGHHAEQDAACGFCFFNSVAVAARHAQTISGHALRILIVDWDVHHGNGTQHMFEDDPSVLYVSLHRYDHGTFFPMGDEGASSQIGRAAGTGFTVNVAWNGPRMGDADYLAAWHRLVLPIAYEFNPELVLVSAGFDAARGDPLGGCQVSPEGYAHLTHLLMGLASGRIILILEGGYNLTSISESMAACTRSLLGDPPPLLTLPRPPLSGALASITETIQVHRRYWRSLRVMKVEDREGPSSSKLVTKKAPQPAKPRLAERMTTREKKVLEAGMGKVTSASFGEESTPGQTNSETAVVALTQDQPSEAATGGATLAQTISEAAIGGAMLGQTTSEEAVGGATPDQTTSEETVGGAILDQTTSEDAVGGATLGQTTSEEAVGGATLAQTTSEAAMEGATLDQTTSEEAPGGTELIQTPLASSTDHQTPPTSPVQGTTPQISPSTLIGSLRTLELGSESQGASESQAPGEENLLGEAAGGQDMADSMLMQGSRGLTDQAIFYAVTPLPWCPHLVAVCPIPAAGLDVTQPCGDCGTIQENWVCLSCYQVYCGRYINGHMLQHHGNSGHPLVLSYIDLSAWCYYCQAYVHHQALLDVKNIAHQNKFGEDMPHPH
Procedure: (§1) For the direct comparison of HDAC1 vs. HDAC6 inhibition, HDAC activity was analyzed using the HDAC Assay Kit from Millipore (17–356). Briefly, recombinant HDAC1 or recombinant HDAC6 (both purchased from Epigenetek, Purity of HDAC1 is more than 60% and purity HDAC6 is more than 85%). was incubated with the fluorometric HDAC substrate according to the manufacturer’s protocol in the presence of DMSO vehicle or increase compound doses. In a secondary activator reaction, the fluorophore is only cleaved from the deacetylated substrate, allowing for quantification. Fluorescence was quantified on a FLUOstar-Optima or a FLUOstar Omega plate reader (BMG Biosciences).

recombinant HDAC1 = molecular target: T2, recombinant HDAC1 (Homo sapiens, UniProt Q13547); assay: as above; type: biochemical; conditions: recombinant HDAC1, fluorometric substrate; Table 4
T2 construct: purchased Epigenetek
Procedure: as §1

HBEC-34KT = assay: MTS viability assay; type: cell-based, human; conditions: Homo sapiens, 96 h, Patient B normal line, 4 days, read-out: Antiproliferative activity IC50, HBEC-34KT
Procedure: (§2) Lung cancer cells (kindly provided by Dr. John D. Minna, [13, 21]) were maintained in RPMI 1640 media supplemented with 10% FBS. Immortalized normal human bronchial epithelial cells (also provided by Dr. John D. Minna) were cultured in KSFM supplemented with pituitary extract and EGF. For viability assays, cells were plated on 96 well plates and grown overnight. Cells were then exposed to increasing doses of the indicated compounds for 4 days and their viability assayed using the Promega Cell Titer 96 AQueous One kit per the manufacturer’s protocol. All doses were tested in 4–8 replicates. IC50 values were calculated using the in-house software DIVISA.

HBEC-30KT = assay: MTS viability assay; type: cell-based, human; conditions: Homo sapiens, 96 h, Patient A normal line, 4 days, read-out: Antiproliferative activity IC50, HBEC-30KT
Procedure: as §2

[1] = test system: epigenetically silenced GFP transgene in LDR cells; assay: locus derepression (LDR) assay, GFP induction; type: cell-based
Procedure: LDR cells were maintained in DMEM with L-glutamine and high glucose, 1 mM sodium pyruvate, 0.1 mM MEM non-essential amino acids, 1% v/v penicillin-streptomycin and 10% heat inactivated FBS. Cells were seeded on glass bottom chambers at low-medium density and allowed to attach overnight. Compounds were then added for 24h at the indicated dose and cells were imaged under a fluorescent microscope equipped with a camera using a 20 or 40X objective. All images shown were exposed for identical time.

HCC4017 = assay: MTS viability assay; type: cell-based, human; conditions: for IC50: Homo sapiens, HCC4017, 96 h, Patient A cancer line, MTS, 4 days, read-out: Antiproliferative activity IC50, HCC4017; for Selectivity (HBEC-30KT vs HCC4017): Patient A
Procedure: as §2, with “Immortalized” for “Lung cancer cells (kindly provided by Dr. John D. Minna, [13, 21]) were maintained in RPMI 1640 media supplemented with 10% FBS. Immortalized”

HCC4018 = assay: MTS viability assay; type: cell-based, human; conditions: for IC50: Homo sapiens, 96 h, Patient B cancer line, MTS, 4 days, read-out: Antiproliferative activity IC50, HCC4018; for Selectivity (HBEC-34KT vs HCC4018): Patient B
Procedure: as §2, with “Immortalized” for “Lung cancer cells (kindly provided by Dr. John D. Minna, [13, 21]) were maintained in RPMI 1640 media supplemented with 10% FBS. Immortalized”

[2] = Table 3, read-out: HDAC6 pIC50 (converted)
[3] = recombinant HDAC6, fluorometric substrate, Table 4, read-out: HDAC6 IC50

T2 sequence (Q13547 whole entry): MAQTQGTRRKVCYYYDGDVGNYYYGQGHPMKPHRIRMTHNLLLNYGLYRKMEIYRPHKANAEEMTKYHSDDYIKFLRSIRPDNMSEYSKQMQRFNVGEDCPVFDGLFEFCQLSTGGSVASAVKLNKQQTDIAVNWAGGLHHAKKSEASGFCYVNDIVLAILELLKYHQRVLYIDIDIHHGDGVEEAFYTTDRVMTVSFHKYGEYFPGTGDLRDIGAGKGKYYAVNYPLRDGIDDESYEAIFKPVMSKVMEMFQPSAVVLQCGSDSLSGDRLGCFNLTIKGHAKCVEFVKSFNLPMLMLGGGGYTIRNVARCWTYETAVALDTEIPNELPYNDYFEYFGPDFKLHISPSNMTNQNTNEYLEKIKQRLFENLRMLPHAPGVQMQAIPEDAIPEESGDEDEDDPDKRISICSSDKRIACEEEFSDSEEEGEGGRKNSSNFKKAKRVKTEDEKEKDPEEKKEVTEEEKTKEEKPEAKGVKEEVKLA

With O=C(NO)c1ccc(S(=O)(=O)N2CCN(c3nc4ccccc4o3)CC2)cc1 [Compound 9c, 4-(4-Benzoxazol-2-yl-piperazin-1-sulfonyl)-N -hydroxy-benzamid] the IC50 (recombinant HDAC6; [2]) was 200 nM, the “Selectivity Index HDAC1/HDAC6” value (recombinant HDAC6; Table 4) was 4.3 and the IC50 (recombinant HDAC6; [3]) was 220 ± 40 nM. For the same compound, the IC50 (recombinant HDAC1) was 920 ± 160 nM, the IC50 (HBEC-34KT) was greater than 10000 nM and the IC50 (HBEC-30KT) was greater than 10000 nM. For the same compound, the “GFP induction / activity in the LDR assay” value [1] was “high level of GFP induction”, the IC50 (HCC4017) was 1240 nM and the “Selectivity (HBEC-30KT vs HCC4017)” value (HCC4017) was greater than 8.06. The IC50 (HCC4018) was 5050 nM and the “Selectivity (HBEC-34KT vs HCC4018)” value (HCC4018) was greater than 1.98.

O=C(NO)c1ccc(S(=O)(=O)N2CCN(c3nc4ccccc4s3)CC2)cc1 [Compound 9d, 4-(4-Benzothiazol-2-yl-piperazin-1-sulfonyl)-N -hydroxy-benzamid] gave an IC50 (recombinant HDAC6; [2]) of 100 nM, an IC50 (recombinant HDAC6; [3]) of 130 ± 20 nM and an IC50 (recombinant HDAC1) of 900 ± 450 nM. The IC50 (HBEC-34KT) was 8220 nM, the IC50 (HBEC-30KT) was 5370 nM and the “GFP induction / activity in the LDR assay” value [1] was “high level of GFP induction”. The IC50 (HCC4017) was 1630 nM, the “Selectivity (HBEC-30KT vs HCC4017)” value (HCC4017) was 3.29 and the IC50 (HCC4018) was 4000 nM. For the same compound, the “Selectivity (HBEC-34KT vs HCC4018)” value (HCC4018) was 2.06.

For Cn1c(N2CCN(S(=O)(=O)c3ccc(C(=O)NO)cc3)CC2)nc2ccccc21 [Compound 9b, 4-[4-(1-methylbenzimidazol-2-yl)piperazin-1-yl]sulfonylbenzenecarbohydroxamic acid], the IC50 (recombinant HDAC6; [2]) was 100 nM, the “Selectivity Index HDAC1/HDAC6” value (recombinant HDAC6; Table 4) was 28.4 and the IC50 (recombinant HDAC6; [3]) was 130 ± 70 nM. For the same compound, the IC50 (recombinant HDAC1) was 3700 ± 1700 nM, the IC50 (HBEC-34KT) was greater than 10000 nM and the IC50 (HBEC-30KT) was greater than 10000 nM. For the same compound, the “activation of the silenced GFP gene (GFP expression)” value ([1]; compound at 20μM, fluorescence microscopy) was “robust GFP expression”, the IC50 (HCC4017) was 1490 nM and the “Selectivity (HBEC-30KT vs HCC4017)” value (HCC4017) was greater than 6.71. The IC50 (HCC4018) was 6100 nM and the “Selectivity (HBEC-34KT vs HCC4018)” value (HCC4018) was greater than 1.64.

— article PMC4689404, “2-Benzazolyl-4-Piperazin-1-Ylsulfonylbenzenecarbohydroxamic Acids as Novel Selective Histone Deacetylase-6 Inhibitors with Antiproliferative Activity” (PLoS ONE, 2015)
